Consider 4 molecules from patent US20050085547A1, “Molecules for inducing differentiation of dendritic cells” (Council of Scientific & Industrial Research, priority 2003, published 2005).

Where two headings read alike, the source gives them in different places.

In series [1] the test system is mouse bone marrow leukocyte precursors. In words: Differentiation of dendritic cells from bone marrow leukocyte precursors, flow cytometry of cell surface markers. In kind it is cell-based, BALB/c mice. As to the method: (§1) The fine suspension obtained above was transferred into a 50 ml sterile centrifuge tube and centrifuged for 10 minutes at 1200 rpm. […] The pellets were washed using HBSS wash buffer and then centrifuged again for 10 minutes at 1200 rpm. This process was repeated for one more time. […] This suspension was then finally passed through a MACS (Magnetic Activated Cell Sorting) column to get essentially and predominately leukocyte precursors.
In order to evaluate the upregulation of various cell surface markers associated with Dendritic cells, flow cytometry on the cells stimulated with GM-CSF or the compound was carried out using fluorescent labeled antibodies to various molecules (CD11c, I-A^d, CD80, CD86, H2-D^d, CD54, CD40).
The hind limbs of the mouse were removed carefully and placed in a Petri dish with HBSS (Hanks Balanced Saline Solution) wash buffer. The tibias and femurs were cleared of all surrounding and attached tissues. This was followed by chipping the ends of bones. The bone marrow was flushed out by injecting HBSS solution into the bone with the help of a hypodermal syringe (No. 26 gauge). The bone marrow was finally made into a fine suspension by syringing in and out of the fluid several times using an 18 gauge syringe needle.

For series [2] the test system is unchanged. In words: Viability of the stimulated BM precursor cultures. On the set-up: Viability, % of Viable cells: reference not given here. In kind it is cell-based, BALB/c mice. The method, then: as §1
Another series concerns osteoclast precursors. Put plainly: In vitro osteoclastogenesis assay (M-CSF + RANKL, TRAP staining). The settings on record: for Effect on RANKL-induced osteoclast differentiation / formation (in words): M-CSF and RANKL, TRAP-positive osteoclasts; for % inhibition of osteoclast formation / Number of TRAP-positive multinuclear cells/well of 96 well plate (Mean ± SEM): 6 days. The series is classed as cell-based, Balb/c mice. The text has this: For in vitro osteoclastogenesis bone marrow cells were isolated from 5- to 8-wk-old Balb/c mice. Mice were sacrificed by cervical dislocation and femora and tibiae were aseptically removed and dissected free of adherent soft tissues. The bone ends were cut, and the marrow cavity was flushed out with medium MEM from one end of the bone using a sterile 21-gauge needle. The bone marrow suspension was carefully agitated with a plastic Pasteur pipette to obtain a single-cell suspension. The cells were washed twice and resuspended (10^6 cells/ml) in αMEM containing 10% FBS. […] After 24 h, nonadherent cells were harvested and layered on a Ficoll-Hypaque gradient. Cells at the gradient interface were collected, washed and resuspended (5×10^5/ml) in αMEM containing 10% FBS. In this study, we called these stromal cell-free, M-CSF-dependent, nonadherent cells as osteoclast precursors. These osteoclast precursors were added to 96-well plates (100 μl/well) containing plastic coverslips. Each well received further 100 μl of medium containing M-CSF (30 ng/ml), RANKL (30 ng/ml) without or with various concentrations of purified compound. Cultures were fed every 2-3 days and after incubation for 6 days osteoclast formation was evaluated by tartrate-resistant acid phosphatase (TRAP) staining. The number of TRAP-positive multinucleated cells (MNCs) containing 3 or more nuclei was scored.
TRAP is preferentially expressed at high levels in osteoclast and is considered, especially in the mouse, to be an osteoclast marker. Cytochemical staining for TRAP is widely used for identifying the osteoclasts in vivo and in vitro. It is claimed to be specific for osteoclasts in bone. After incubation, cells on cover slips were washed in PBS, fixed in 10% formalin for 10 min and stained for acid phosphatase in the presence of 0.05 M sodium tartrate. The substrate used was napthol AS-BI phosphate. Only those cells that were strongly TRAP-positive (dark red) counted by light microscopy.

The mark [3] stands for this setting: Table A, 15 ng/ml of GM-CSF or 50 micro gram per ml of the synthetic compound, 48 h.
[4] abbreviates: Table B (Examples 6-8), concentration not given.
Setting [5] is: M-CSF + RANKL + compound 0.5 μg/ml.
[6] abbreviates: M-CSF + RANKL + compound 1.5 μg/ml.
[7] abbreviates: M-CSF + RANKL + compound 3.0 μg/ml.
Where [8] appears, read: M-CSF + RANKL + compound 5.0 μg/ml.

Take “GM-CSF: Granulocyte Macrophage-Colony Stimulating Factor, growth factor conventionally used to generate DCs in vitro; comparison”: in series [1] (setting [3]), the “Fold increase in Relative MFI over unstimulated control, surface marker CD11c” value turned out to be 5.0 fold; the “Fold increase in Relative MFI over unstimulated control, surface marker CD54” value is recorded as 4.0 fold; the “Fold increase in Relative MFI over unstimulated control, surface marker CD80” value is listed as 3.3 fold; the “Fold increase in Relative MFI over unstimulated control, surface marker H-2D^d” value came to 2.0 fold. In series [1] (setting [4]), the “Fold increase in Relative MFI over unstimulated control, surface marker CD11c” value was 5.0 fold; the “Fold increase in Relative MFI over unstimulated control, surface marker CD54” value was 4.0 fold; the “Fold increase in Relative MFI over unstimulated control, surface marker CD80” value came out at 3.3 fold; the “Fold increase in Relative MFI over unstimulated control, surface marker H-2D^d” value stood at 2.0 fold. Also, in series [2] (setting [3]), the “Viability, % of Viable cells” value was 180%. Besides, in series [2] (setting [4]), the “Viability, % of Viable cells” value amounted to 180%.

For the molecule `O=C([O-])CC[C@H](NS(=O)(=O)[O-])C(=O)[O-].O=C([O-])CC[C@H](NS(=O)(=O)[O-])C(=O)[O-].[Ca+2].[Ca+2].[Ca+2]` [compound 1, L-glutamyl-N-sulphonic acid, Ca salt], the “Induction of differentiation of dendritic cells from BM precursors (in words)” value in series [1] is reported as “Induces Differentiation of Dendritic Cells”; in series [1] (listed as the compound), “induces the differentiation of DCs from BM precursors”. The “Concentration of maximum up regulation of cell surface densities of CD11c, CD80, CD54” value in series [1] (incubation of BM leukocyte precursors with different concentrations) is recorded as 200 mM. In addition, the “Viability of the cultures at the end of the incubation period” value in series [2] (200 mM of the synthetic compound, 48 h (embodiment text)) is recorded as “more than 99%”; in series [2] (50 micro gram per ml of the synthetic compound, 48 h) it was greater than 99%. Moreover, in series [2] (setting [3]), the “Viability, % of Viable cells” value turned out to be 150%. Further, the “Effect on RANKL-induced osteoclast differentiation / formation (in words)” value in the series with osteoclast precursors is reported as “dose dependent inhibition in the number of osteoclast cells generated”.

In the case of `O=C([O-])CCC[C@H](NS(=O)(=O)[O-])C(=O)[O-].O=C([O-])CCC[C@H](NS(=O)(=O)[O-])C(=O)[O-].[Ca+2].[Ca+2].[Ca+2]` [L-homoglutamic acid, N-sulphonic acid, calcium salt], the “% inhibition of osteoclast formation” value in the series with osteoclast precursors (setting [5]) came out at 5.55%; in the series with osteoclast precursors (setting [6]), 27.60%; in the series on osteoclast precursors (setting [7]), 46.40%; in the series on osteoclast precursors (setting [8]), 68.50%. For the same molecule, the “Number of TRAP-positive multinuclear cells/well of 96 well plate (Mean ± SEM)” value with osteoclast precursors (setting [5]) was 138.57 ± 7.95 cells/well; in the series with osteoclast precursors (setting [6]), 106.23 ± 10.47 cells/well; in the series with osteoclast precursors (setting [7]), 78.57 ± 13.57 cells/well; with osteoclast precursors (setting [8]), 46.22 ± 10.00 cells/well.

On to `O=C(O)C[C@H](NS(=O)(=O)O)C(=O)O` [example 3, L-aspartyl, N-sulfonic acid], for which the “Effect on RANKL-induced osteoclast differentiation / formation (in words)” value in the series on osteoclast precursors is “significantly inhibited osteoclast formation”.
